Assay results from patent publication US11318178B2, “Lactobacillus reuteri ATG-F4 strain having function of enhancing dopamine secretion and pharmaceutical composition comprising same for prevention or treatment of psychopathy” (ATOGEN CO., LTD, priority 2018, dated 2022).

Key:
serotonin = test: Serum serotonin ELISA after 4-week feeding of mice; format: in vivo, C57BL/6J mice; conditions: 4 weeks in drinking water (F4 about 10^7 CFU/ml; ampicillin 1 g/l); control 3537.2 ng/ml
From the text: (§1) Before all animal experiments, animal experimentation was approved and approval number ATG-IACUC-REV-180810 was granted through appropriate procedures by the Institutional Animal Care and Use Committee (IACUC) of AtoGEN, and a guide to ethical animal experiments was followed. 4-week-old C57BL/6J mice were purchased through Central Laboratory Animal (Seoul, Korea), and the experimental groups that were used were a control fed with general feed and drinking water (Ctrl), a gut microbiota dysbiosis experimental group (Amp) fed with general feed and drinking water containing 1 g/l of ampicillin, and an experimental group fed with general feed and drinking water containing about 10^7 CFU/ml of lactic-acid bacteria F4 (F4). Five mice were used for each experimental group. After stabilizing the 4-week-old mice for 1 week, the experiment was conducted for 4 weeks using the experimental groups described above. The entire experiment was independently repeated twice.
(§2) After the 4-week feeding experiment, the mice were anesthetized using ether, and blood was obtained from the heart thereof. […] The serum thus obtained was measured to determine the amounts of dopamine and serotonin in the blood using a dopamine ELISA kit (Abnova, Taiwan) and a serotonin ELISA kit (Abcam, USA).

dopamine = test: Serum dopamine ELISA after 4-week feeding of mice; format: in vivo, C57BL/6J mice; conditions: 4 weeks in drinking water (F4 about 10^7 CFU/ml; ampicillin 1 g/l); control 2.95 ng/ml
From the text: as §1, §2

[1] = test system: mouse macrophage cell line RAW264.7; test: IL-10 ELISA of culture solution of RAW264.7 cells with or without LPS; format: cell-based; conditions: 1 μg/ml LPS alone (positive control), 24 hr
Procedure: In order to measure the anti-inflammatory effect of F4 lactic-acid bacteria, a cytokine quantification experiment using cells was performed. F4 lactic-acid bacteria as a treatment material were subjected to liquid culture in an MRS broth and were then centrifuged, after which the cells of the strain were recovered and concentrated 10-fold. The concentrated solution thus obtained was treated with lysozyme for 1 hr, lysed through sonication, and then quantified through solid content analysis. […] In order to confirm whether the generation of nitric oxide (NO) as an additional inflammation indicator was inhibited in the LPS-induced group, a predetermined amount of the cell culture supernatant obtained in the cell experiment for measuring cytokines was transferred into 96 wells, and 100 μl of a Griess reagent (modified, SIGMA, USA) was injected thereto, after which reaction was carried out at room temperature for 10 min and absorbance at 540 nm was measured using an ELISA reader. The amount of NO that was produced was calculated by comparing the proportion of NO present in the cell culture solution with the LPS-treated group as a control.

**Q.** Which results are given for `CC1(C)S[C@@H]2[C@H](NC(=O)[C@H](N)c3ccccc3)C(=O)N2[C@H]1C(=O)O` [Amp, ampicillin]?
**A.** serotonin in serum (serotonin): 2365.0 ng/mL; dopamine in serum (dopamine): 2.09 ng/mL

**Q.** How did the IL-10 production [1] turn out when lipopolysaccharide [LPS] was run?
**A.** 166.60 pg/mL
